The IC50 is the concentration at which inhibition is half-maximal. A low value points to greater potency in that assay.

Bounds are passed on as bounds.

The source of these data is US20220267260A1, “COMPOUNDS CONTAINING A SULFONIC GROUP AS KAT INHIBITORS” (Epizyme, Inc., priority 2016, published 2022).

Test [1] deals with T1, KAT5 (Homo sapiens, UniProt Q92993).
T1 construct: His-TEV tag (N, cleaved yes); made in house
The test can be described thus: KAT5 enzyme inhibition assay (SAMDI mass spectrometry). In kind it is biochemical. The conditions noted are these: His-TEV-FL KAT5-Flag enzyme construct.

The target of test [2] is T2, KAT6A (Homo sapiens, UniProt Q92794).
T2 construct: His-TEV tag (N, cleaved yes); made in house
T2 sequence (Q92794 with tags, fused parts or gaps): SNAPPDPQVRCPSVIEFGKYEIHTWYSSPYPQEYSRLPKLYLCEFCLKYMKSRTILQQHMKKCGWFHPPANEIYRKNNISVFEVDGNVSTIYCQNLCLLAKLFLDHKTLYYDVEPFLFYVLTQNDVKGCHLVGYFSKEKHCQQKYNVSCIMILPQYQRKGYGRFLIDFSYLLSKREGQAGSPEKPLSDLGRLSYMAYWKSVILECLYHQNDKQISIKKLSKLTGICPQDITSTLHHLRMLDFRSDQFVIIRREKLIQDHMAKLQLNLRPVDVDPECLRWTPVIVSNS
Description: KAT6A enzyme inhibition assay (SAMDI mass spectrometry). Type of test: biochemical. The conditions noted are these: His-TEV-KAT6A 501-784 enzyme construct.

T1 sequence (Q92993 with tags, fused parts or gaps): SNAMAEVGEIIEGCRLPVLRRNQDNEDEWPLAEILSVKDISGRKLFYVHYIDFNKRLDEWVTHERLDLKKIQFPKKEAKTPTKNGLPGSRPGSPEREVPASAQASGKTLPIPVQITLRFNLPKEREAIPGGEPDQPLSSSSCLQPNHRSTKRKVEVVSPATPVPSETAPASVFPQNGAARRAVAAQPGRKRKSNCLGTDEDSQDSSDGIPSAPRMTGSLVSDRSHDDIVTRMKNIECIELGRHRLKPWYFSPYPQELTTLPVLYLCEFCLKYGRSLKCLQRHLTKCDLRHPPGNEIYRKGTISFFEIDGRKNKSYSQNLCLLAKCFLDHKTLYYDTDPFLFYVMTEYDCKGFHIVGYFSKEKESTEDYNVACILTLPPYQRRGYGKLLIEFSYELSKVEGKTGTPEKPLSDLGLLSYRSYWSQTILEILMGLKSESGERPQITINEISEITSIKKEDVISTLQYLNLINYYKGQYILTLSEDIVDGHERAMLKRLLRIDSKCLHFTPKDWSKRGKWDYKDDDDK

As to `CNC(=O)CCNC(=O)Cn1nc(C)c(F)c1C(=O)NNS(=O)(=O)C1CCCCC1` [Compound I-505], the 50% inhibitory concentration (IC50) in test [1] and in test [2] was over 100 µM in each case.

As to `Cc1cc(-c2ccccc2)cc(C(=O)NNS(=O)(=O)C2COC2)c1F` [Compound I-55], the IC50 in test [1] and in test [2] was 10 to 50 µM each time.

Turning to `COCc1cc(Cl)c(F)c(C(=O)NNS(=O)(=O)CC2CCCCC2)c1` [Compound I-437], the IC50 in test [1] and in test [2] was at most 10 µM throughout.

With `COc1cccc(S(=O)(=O)NNC(=O)c2cc(-c3ccccc3)cc(C)c2F)c1` [Compound I-232], the IC50 in test [1] and in test [2] was at most 10 µM throughout.

On to `Cc1cc(-c2ccccc2)cc(C(=O)NNS(=O)(=O)C2CN(CCc3ccccc3)C2)c1F` [Compound I-62], for which the IC50 was over 100 µM in test [1] and 10 to 50 µM in test [2].

Turning to `Cc1cc(-c2ccccc2)cc(C(=O)NNS(=O)(=O)C2CN(C(=O)C(C)C)C2)c1F` [Compound I-114], the IC50 was over 100 µM in test [1] and 10 to 50 µM in test [2].

On to `CCC(=O)N1CCCC(S(=O)(=O)NNC(=O)c2cc(-c3ccccc3)cc(C)c2F)C1` (stereo not drawn) [Compound I-110], for which the values for the IC50 in test [1] and in test [2] were 50 to 100 µM and at most 10 µM, respectively.

For the compound `Cc1cc(-c2ccccc2)cc(C(=O)NNS(=O)(=O)C2CN(Cc3ccccc3Cl)C2)c1F` [Compound I-37], the IC50 in test [1] and in test [2] was 10 to 50 µM throughout.

With `Cc1cc(-c2cccc(F)c2)cc(C(=O)NNS(=O)(=O)CC2CCN(C(=O)CCN(C)C(=O)OC(C)(C)C)CC2)c1F` [Compound I-327], the 50% inhibitory concentration (IC50) in test [1] and in test [2] was at most 10 µM each time.

For `Cc1cc(-c2ccncc2)cc(C(=O)NNS(=O)(=O)c2ccccc2)c1F` [Compound I-202], the 50% inhibitory concentration (IC50) is over 100 µM in test [1] and 10 to 50 µM in test [2].

Regarding `Cc1cc(-c2cccc(F)c2F)cc(C(=O)NNS(=O)(=O)C2CCCCC2)c1F` [Compound I-381], the IC50 in test [1] was at most 10 µM; in test [2], 10 to 50 µM.

For the compound `O=S(=O)(Nc1ncc(-c2ccccc2F)[nH]1)c1ccccc1` [Compound I-65], the IC50 in test [1] and in test [2] was over 100 µM in each case.

Take `Cc1nn(-c2ccccc2)cc1C(=O)NNS(=O)(=O)c1ccccc1` [Compound I-124]: the 50% inhibitory concentration (IC50) in test [1] and in test [2] was over 100 µM each time.

`COc1ccc(Cn2cnc3c(C(=O)NNS(=O)(=O)c4ccccc4)cc(-c4ccccc4)cc32)cc1` [Compound I-248]: the results for the half-inhibitory concentration (IC50) in test [1] and in test [2] were 50 to 100 µM and 10 to 50 µM, respectively.

As for `Cc1nc(-c2ccccc2)cc(C(=O)NNS(=O)(=O)C2CCCCC2)c1F` [Compound I-288], the concentration for half-maximal inhibition (IC50) in test [1] and in test [2] was 10 to 50 µM each time.

Take `O=C(NNS(=O)(=O)c1ccccc1)N1CCCCC1` [Compound I-254]: the IC50 in test [1] and in test [2] was over 100 µM throughout.

As to `Cc1cc(-c2ccccc2)cc(C(=O)NNS(=O)(=O)CC2CCCN(CCO)C2)c1F` (stereo not drawn) [Compound I-339], the IC50 in test [1] and in test [2] was 10 to 50 µM in each case.

As to `Cc1cc(-c2ccccc2)cc(C(=O)NNS(=O)(=O)C(C)C2CCNCC2)c1F` (stereo not drawn) [Compound I-382], the concentration for half-maximal inhibition (IC50) in test [1] and in test [2] was 50 to 100 µM in each case.

Consider `Cc1cc(-c2ccccc2)cc(C(=O)NNS(=O)(=O)c2ccc(CO)cc2)c1F` [Compound I-147], for which the IC50 was 10 to 50 µM in test [1] and at most 10 µM in test [2].

For `Cc1cc(-c2ccccc2)cc(C(=O)NNS(=O)(=O)CC2CCCCC2)c1F` [Compound I-227], the IC50 in test [1] and in test [2] was at most 10 µM each time.

On to `COc1ccc(S(=O)(=O)NNC(=O)c2ccccc2F)cc1` [Compound I-179], for which the half-maximal inhibitory concentration (IC50) in test [1] was over 100 µM.

For `CNC(=O)Cn1nc(C(=O)NNS(=O)(=O)C2CCCCC2)cc1C` [Compound I-481], the IC50 in test [1] and in test [2] was over 100 µM in each case.

Turning to `CCC(=O)N1CCCC(CS(=O)(=O)NNC(=O)c2cc(-c3ccccc3)cc(C)c2F)C1` (stereo not drawn) [Compound I-280], the IC50 in test [1] and in test [2] was at most 10 µM in each case.

As to `COc1ccccc1CN1CCC(S(=O)(=O)NNC(=O)c2cc(-c3ccccc3)cc(C)c2F)C1` (stereo not drawn) [Compound I-25], the IC50 in test [1] and in test [2] was 10 to 50 µM throughout.

In the case of `Cc1cc(-c2cccc(C(=O)OCc3ccccc3)c2)cc(C(=O)NNS(=O)(=O)CC2CCCCC2)c1F` [Compound I-446], the IC50 in test [1] fell in the range of 10 to 50 µM; in test [2], 50 to 100 µM.

As to `O=C(NNS(=O)(=O)C1CCOCC1)c1cc(CN2CCCCC2)cc(Cl)c1F` [Compound I-454], the IC50 in test [1] lay within 50 to 100 µM; in test [2], 10 to 50 µM.

Consider `Cc1cccc(F)c1C(=O)NNS(=O)(=O)CC(Cc1ccccc1)C(C)C` (stereo not drawn) [Compound I-266], for which the IC50 in test [1] and in test [2] was over 100 µM each time.

For the compound `Cc1cc(-c2cccc(F)c2)cc(C(=O)NNS(=O)(=O)c2ccccc2)c1F` [Compound I-371], the IC50 in test [1] and in test [2] was at most 10 µM each time.

As for `Cc1cc(-c2cccc(F)c2)cc(C(=O)NNS(=O)(=O)C2CCCCC2)c1F` [Compound I-323], the 50% inhibitory concentration (IC50) in test [1] and in test [2] was at most 10 µM in each case.

As to `Cc1cccc(-c2ccc(F)c(C(=O)NNS(=O)(=O)c3ccccc3)c2C)c1` [Compound I-273], the IC50 was over 100 µM in test [1] and 50 to 100 µM in test [2].

As to `Cc1c(C(=O)NNS(=O)(=O)C2CCCCC2)cccc1-c1ccccc1` [Compound I-363], the half-inhibitory concentration (IC50) in test [1] and in test [2] was over 100 µM in each case.

Turning to `COCC(=O)N1CCCC(CS(=O)(=O)NNC(=O)c2cc(-c3ccccc3)cc(C)c2F)C1` (stereo not drawn) [Compound I-346], the 50% inhibitory concentration (IC50) in test [1] and in test [2] was at most 10 µM in each case.

Take `O=C(NNS(=O)(=O)C1CCOCC1)c1cc(CN2CCOCC2)cc(Cl)c1F` [Compound I-448]: the half-inhibitory concentration (IC50) in test [1] and in test [2] was over 100 µM in each case.

Turning to `O=C(NNS(=O)(=O)c1ccccc1)c1cc2ccccc2cc1F` [Compound I-262], the IC50 in test [1] was 50 to 100 µM; in test [2] it was at most 10 µM.

On to `O=C(NNS(=O)(=O)c1ccccc1)c1cccc(-c2ccccc2)c1F` [Compound I-234], for which the results for the concentration for half-maximal inhibition (IC50) in test [1] and in test [2] were over 100 µM and at most 10 µM, respectively.

`Cn1cnc2cc(-c3ccccc3)cc(C(=O)NNS(=O)(=O)C3CCCCC3)c21` [Compound I-441]: the IC50 in test [1] and in test [2] was over 100 µM in each case.

`Cc1c(-c2ccccc2)ccc(Cl)c1C(=O)NNS(=O)(=O)C1CCCCC1` [Compound I-308]: the values for the 50% inhibitory concentration (IC50) in test [1] and in test [2] were 50 to 100 µM and over 100 µM, respectively.

Regarding `Cc1cc(-c2ccccc2)cc(C(=O)NNS(=O)(=O)C2CCN(Cc3ccccc3)C2)c1F` (stereo not drawn) [Compound I-33], the concentration for half-maximal inhibition (IC50) in test [1] and in test [2] was 10 to 50 µM in each case.

With `Cn1ccnc1-c1ccc(F)c(C(=O)NNS(=O)(=O)c2ccccc2)c1F` [Compound I-172], the 50% inhibitory concentration (IC50) in test [1] is over 100 µM; in test [2], 10 to 50 µM.

As to `O=C(NNS(=O)(=O)c1ccccc1)c1c(F)ccc(-c2ccccn2)c1F` [Compound I-132], the results for the IC50 in test [1] and in test [2] were 50 to 100 µM and at most 10 µM, respectively.

As for `COCCC(=O)N1CCCC(S(=O)(=O)NNC(=O)c2cc(-c3ccccc3)cc(C)c2F)C1` (stereo not drawn) [Compound I-112], the half-maximal inhibitory concentration (IC50) in test [1] and in test [2] was 10 to 50 µM each time.

In the case of `CNC(=O)c1cccc(-c2cc(C)c(F)c(C(=O)NNS(=O)(=O)C3CCCCC3)c2)c1` [Compound I-458], the half-maximal inhibitory concentration (IC50) in test [1] and in test [2] was over 100 µM each time.

Turning to `CCc1cc(Cl)c(F)c(C(=O)NNS(=O)(=O)C2CCOCC2)c1` [Compound I-422], the IC50 in test [1] and in test [2] was over 100 µM each time.

For `Cc1cc(-c2ccccc2)cc(C(=O)NNS(=O)(=O)c2ccc(=O)[nH]c2)c1F` [Compound I-162], the 50% inhibitory concentration (IC50) in test [1] is over 100 µM; in test [2], at most 10 µM.

Take `Cc1cc(-c2cccc(F)c2Cl)cc(C(=O)NNS(=O)(=O)C2CCCCC2)c1F` [Compound I-399]: the IC50 in test [1] and in test [2] was 50 to 100 µM in each case.

`Cc1cc(-c2cccc(F)c2F)cc(C(=O)NNS(=O)(=O)CC2CCCCC2)c1F` [Compound I-380]: the 50% inhibitory concentration (IC50) was over 100 µM in test [1] and 50 to 100 µM in test [2].

With `Cc1cc(-c2ccccc2)cc(C(=O)NNS(=O)(=O)c2cccc(CO)c2)c1F` [Compound I-261], the half-inhibitory concentration (IC50) in test [1] and in test [2] was at most 10 µM each time.

`CCN1CCC(S(=O)(=O)NNC(=O)c2cc(-c3ccccc3)cc(C)c2F)CC1` [Compound I-91]: the half-inhibitory concentration (IC50) in test [1] fell in the range of 10 to 50 µM; in test [2], 50 to 100 µM.

As for `CCS(=O)(=O)N1CCCC(CS(=O)(=O)NNC(=O)c2cc(-c3cccc(C)c3)cc(Cl)c2F)C1` (stereo not drawn) [Compound I-511], the values for the IC50 in test [1] and in test [2] were at most 10 µM and over 100 µM, respectively.

The compound `Cc1cc(-c2ccccc2)cc(C(=O)NNS(=O)(=O)c2cccc(C(C)C)c2)c1F` [Compound I-218] registered a 50% inhibitory concentration (IC50) in test [1] of over 100 µM.

`O=C(NNS(=O)(=O)c1ccccc1)c1ccc(Cl)cc1` [Compound I-181] showed a 50% inhibitory concentration (IC50) in test [1] of over 100 µM.

For the compound `O=C(NNS(=O)(=O)c1ccccc1)c1cccc(F)c1` [Compound I-191], the IC50 in test [1] is over 100 µM.

Regarding `Cc1cc(-c2ccccc2)cc(C(=O)NNS(=O)(=O)c2ccccc2)c1F` [Compound I-157], in test [1], the half-inhibitory concentration (IC50) is at most 10 µM.

In turn, `O=C(NNS(=O)(=O)c1ccccc1F)c1ccccc1` [Compound I-163] showed a 50% inhibitory concentration (IC50) in test [1] of over 100 µM.

In test [1], `CC(C)n1nc(CNC(=O)CNS(=O)(=O)c2ccccc2)c2ccccc21` [Compound I-525] yielded an IC50 of over 100 µM.

In test [1], `O=C(NNS(=O)(=O)c1ccc2ccccc2c1)c1ccccc1` [Compound I-146] displayed an IC50 of over 100 µM.

`O=C(NNS(=O)(=O)CC1CCOCC1)c1cc(C2CCCO2)cc(Cl)c1F` (stereo not drawn) [Compound I-506] had a half-inhibitory concentration (IC50) in test [1] of at most 10 µM.

The compound `Cc1cc(-c2ccccc2)cc(C(=O)NNS(=O)(=O)c2cccc(C3CC3)c2)c1F` [Compound I-201] returned an IC50 in test [1] of over 100 µM.

For `COc1cccc(C(=O)NNS(=O)(=O)c2ccccc2)c1` [Compound I-182], in test [1], the 50% inhibitory concentration (IC50) is over 100 µM.

As to `O=C(NNS(=O)(=O)c1ccc2ccccc2c1)c1ccccc1F` [Compound I-238], the IC50 in test [1] lay within 50 to 100 µM.
